Positions of bridges follow the written chain, without caps; N, C: chain ends. Non-standard residues stand in square brackets, D forms with d. Residues, ends and D or L forms follow the SMILES beside them. dPhe(4-Br) = N[C@H](Cc1ccc(Br)cc1)C(=O)O; d(hPhe) = N[C@H](CCc1ccccc1)C(=O)O; dNMeF = CN[C@H](Cc1ccccc1)C(=O)O; hCit = NC(=O)NCCCC[C@H](N)C(=O)O; Tic = O=C(O)[C@@H]1Cc2ccccc2CN1; Cit = NC(=O)NCCC[C@H](N)C(=O)O; Nle = CCCC[C@H](N)C(=O)O; Aib = CC(C)(N)C(=O)O
What was measured:
human MC3R [1] = target: T1, human MC3R (Homo sapiens, UniProt P41968); experiment: split-luciferase cAMP sensor assay, agonist mode (measurement window 1), hMC3R; assay type: cell-based; conditions: agonist mode, hMC3R stable cell line; for Emax: read-out: MC3R cAMP % max activation
T1 construct: expressed in transfected cells; host or cells: HEK-293 cells stably expressing the GScAMP22F split-luciferase cAMP sensor (parent reporter line from Promega); MC3R clone generated in-house, G418 selection
T1 sequence (P41968 whole entry): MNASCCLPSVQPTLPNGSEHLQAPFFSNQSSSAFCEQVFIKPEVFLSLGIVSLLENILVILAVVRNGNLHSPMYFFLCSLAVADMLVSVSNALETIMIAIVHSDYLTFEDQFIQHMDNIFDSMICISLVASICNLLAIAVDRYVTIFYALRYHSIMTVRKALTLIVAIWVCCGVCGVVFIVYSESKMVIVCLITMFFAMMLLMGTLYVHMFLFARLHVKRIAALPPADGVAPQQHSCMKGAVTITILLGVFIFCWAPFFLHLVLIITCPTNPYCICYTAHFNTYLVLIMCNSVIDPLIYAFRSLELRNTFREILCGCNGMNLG
Summary of the method: (§1)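 Live stable cell lines carrying receptor plus GloSensor cAMP22f split-luciferase, loaded with 4% D-luciferin in serum-free medium (~1% serum estimated during assay). Luminescence recorded during in-line peptide addition; direct agonist effect read in window 1, with 20 μM forskolin as normalization reference. EC50 from four-parameter sigmoid fit.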

human MC4R = target: T2, human MC4R (Homo sapiens, UniProt P32245); experiment: split-luciferase cAMP sensor assay, agonist mode (measurement window 1), hMC4R; assay type: cell-based; conditions: for Emax: read-out: MC4R cAMP % max activation; for EC50: read-out: MC4R cAMP EC50
T2 construct: host or cells: HEK-293 cells stably expressing the GScAMP22F split-luciferase cAMP sensor and hMC4R, G418 selection
T2 sequence (P32245 whole entry): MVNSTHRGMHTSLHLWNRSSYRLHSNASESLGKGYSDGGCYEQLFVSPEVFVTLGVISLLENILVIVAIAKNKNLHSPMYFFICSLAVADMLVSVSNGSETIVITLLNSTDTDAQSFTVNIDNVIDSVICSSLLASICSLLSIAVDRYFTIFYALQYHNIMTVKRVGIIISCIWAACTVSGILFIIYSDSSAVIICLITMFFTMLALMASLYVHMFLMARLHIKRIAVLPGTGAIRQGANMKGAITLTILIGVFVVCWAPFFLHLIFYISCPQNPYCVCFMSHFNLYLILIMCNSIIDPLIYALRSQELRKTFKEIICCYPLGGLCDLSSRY
Summary of the method: as §1

human MC3R [2] = target: human MC3R (human, UniProt P41968 1-323); experiment: cell-based or functional assay
Chain of human MC3R (human, UniProt P41968 1-323) (P41968 whole entry): as the sequence (P41968 whole entry) above

human MC4R receptor [3] = target: T3, human MC4R receptor (human, UniProt P32245 1-332); experiment: cell-based or functional assay
T3 sequence (P32245 whole entry): as the sequence (P32245 whole entry) above

human MC4R receptor [4] = target: T3, human MC4R receptor; experiment: cell-based or functional assay; remark: listed apart in the source
[5] = agonist mode, hMC4R stable cell line

CC(=O)N[C@@H](CCCNC(=N)N)C(=O)N[C@H]1CSSC[C@@H](C(N)=O)NC(=O)[C@@H](Cc2c[nH]c3ccccc23)NC(=O)[C@H](CCCNC(=N)N)NC(=O)[C@@H](Cc2ccccc2)N(C)C(=O)[C@H](CCCNC(=N)N)NC(=O)[C@@H](C)NC1=O [CTX-1272, Arg-cyclo(Cys-D-Ala-Arg-NMe-D-Phe-Arg-D-Trp-Cys)] (Ac-RC[dA]R[dNMeF]R[dW]C-NH2; disulfide 2-8 (inferred))
Emax (human MC3R [1]): 0.9% | MC4R selectivity vs MC1R (human MC4R): 0.21 | MC4R selectivity vs MC3R (human MC4R): 0.9 | Emax (human MC4R; [5]): 5.3%

CC(=O)N[C@@H](CCCNC(=N)N)C(=O)N[C@H]1CSSC[C@@H](C(N)=O)NC(=O)[C@H](Cc2c[nH]c3ccccc23)NC(=O)[C@H](CCCNC(=N)N)NC(=O)[C@@H](Cc2c[nH]c3ccccc23)NC(=O)[C@H](CCCNC(=N)N)NC(=O)[C@@H](C)NC1=O [CTX-1274, Arg-cyclo(Cys-D-Ala-Arg-D-Trp-Arg-Trp-Cys)] (Ac-RC[dA]R[dW]RWC-NH2; disulfide 2-8)
Emax (human MC3R [1]): 5.4% | MC4R selectivity vs MC1R (human MC4R): 0.19 | MC4R selectivity vs MC3R (human MC4R): 0.12 | Emax (human MC4R; [5]): 77% | EC50 (human MC4R; [5]): 1400 nM

CC(=O)N[C@@H](CCCNC(=N)N)C(=O)N[C@H]1CSSC[C@@H](C(=O)N[C@@H](CCCCN)C(=O)N2CCC[C@H]2C(N)=O)NC(=O)[C@@H](Cc2c[nH]c3ccccc23)NC(=O)[C@H](CCCNC(=N)N)NC(=O)[C@@H](Cc2ccc(Br)cc2)NC(=O)[C@H](CCCNC(=N)N)NC(=O)[C@@H](C)NC1=O [CTX-1217, Arg-cyclo(Cys-D-Ala-Arg-D-Phe(4-Br)-Arg-D-Trp-Cys)-Lys-Pro] (Ac-RC[dA]R[dPhe(4-Br)]R[dW]CKP-NH2; disulfide 2-8)
Emax (human MC3R [1]): 13% | EC50 (human MC3R [1]; read-out: MC3R cAMP EC50): 4 nM | MC4R selectivity vs MC1R (human MC4R): 1.12 | MC4R selectivity vs MC3R (human MC4R): 2.73 | Emax (human MC4R; [5]): 69%

CC(=O)N[C@@H](CCCNC(=N)N)C(=O)N[C@H]1CSSC[C@@H](C(N)=O)NC(=O)[C@@H](Cc2c[nH]c3ccccc23)NC(=O)[C@H](CCCNC(N)=O)NC(=O)[C@@H](Cc2ccccc2)NC(=O)[C@H](CCCNC(=N)N)NC(=O)C(C)(C)NC1=O [CTX-1271, Arg-cyclo(Cys-Aib-Arg-D-Phe-Cit-D-Trp-Cys)] (Ac-RC[Aib]R[dF][Cit][dW]C-NH2; disulfide 2-8 (inferred))
Emax (human MC3R [1]): 16% | MC4R selectivity vs MC1R (human MC4R): 2.9 | MC4R selectivity vs MC3R (human MC4R): 1.63 | Emax (human MC4R; [5]): 95% | EC50 (human MC4R; [5]): 72 nM

CC(=O)N[C@@H](CCCNC(=N)N)C(=O)N[C@H]1CSSC[C@@H](C(N)=O)NC(=O)[C@@H](Cc2c[nH]c3ccccc23)NC(=O)[C@H](CCCNC(=N)N)NC(=O)[C@@H](Cc2ccc(O)cc2)NC(=O)[C@H](CCCNC(=N)N)NC(=O)[C@@H](C)NC1=O [CTX-1237, Arg-cyclo(Cys-D-Ala-Arg-D-Tyr-Arg-D-Trp-Cys)] (Ac-RC[dA]R[dY]R[dW]C-NH2; disulfide 2-8 (inferred))
Emax (human MC3R [1]): 19% | MC4R selectivity vs MC1R (human MC4R): 0.24 | MC4R selectivity vs MC3R (human MC4R): 0.08 | Emax (human MC4R; [5]): 61%

CC(=O)N[C@@H](CCCNC(=N)N)C(=O)N[C@H]1CSSC[C@@H](C(N)=O)NC(=O)[C@@H]2Cc3ccccc3CN2C(=O)[C@H](CCCNC(=N)N)NC(=O)[C@@H](Cc2ccc(Br)cc2)NC(=O)[C@H](CCCNC(=N)N)NC(=O)[C@@H](C)NC1=O [CTX-1259, Arg-cyclo(Cys-D-Ala-Arg-D-Phe(4-Br)-Arg-Tic-Cys)] (Ac-RC[dA]R[dPhe(4-Br)]R[Tic]C-NH2; disulfide 2-8 (inferred))
Emax (human MC3R [1]): 27% | MC4R selectivity vs MC1R (human MC4R): 0.01 | MC4R selectivity vs MC3R (human MC4R): 0.12 | Emax (human MC4R; [5]): 70%

CC(=O)N[C@@H](CCCNC(=N)N)C(=O)N[C@H]1CSSC[C@@H](C(N)=O)NC(=O)[C@@H](Cc2c[nH]c3ccccc23)NC(=O)[C@H](CCCNC(=N)N)NC(=O)[C@@H](CCc2ccccc2)NC(=O)[C@H](CCCNC(=N)N)NC(=O)[C@@H](C)NC1=O [CTX-1277, Arg-cyclo(Cys-D-Ala-Arg-D-Hph-Arg-D-Trp-Cys)] (Ac-RC[dA]R[d(hPhe)]R[dW]C-NH2; disulfide 2-8 (inferred))
Emax (human MC3R [1]): 5.2% | MC4R selectivity vs MC1R (human MC4R): 0.05 | MC4R selectivity vs MC3R (human MC4R): 0.1 | Emax (human MC4R; [5]): 29%

CCCC[C@H](NC(=O)[C@H](CCCNC(=N)N)NC(C)=O)C(=O)N[C@H]1CSSC[C@@H](C(N)=O)NC(=O)[C@@H](Cc2c[nH]c3ccccc23)NC(=O)[C@H](CCCNC(=N)N)NC(=O)[C@@H](Cc2ccc(Br)cc2)NC(=O)[C@H](CCCNC(=N)N)NC1=O [CTX-1232, Arg-Nle-cyclo(Cys-Arg-D-Phe(4-Br)-Arg-D-Trp-Cys)] (Ac-R[Nle]CR[dPhe(4-Br)]R[dW]C-NH2; disulfide 3-8 (inferred))
MC3R cAMP % max activation (human MC3R [1]): (41%) | MC4R selectivity vs MC1R (human MC4R): 0.39 | MC4R selectivity vs MC3R (human MC4R): 2.44 | MC4R cAMP % max activation (human MC4R; [5]): (46%) | EC50 (human MC4R; [5]): 2.4 nM

Ac-RCA[Cit][dF]R[dW]C-NH2 (disulfide 2-8) [CTX-1288]
% max activation (human MC3R [2]): 36% | cAMP EC50 (human MC3R [2]): 1250 nM | % max activation (human MC4R receptor [3]): 87% | cAMP EC50 (human MC4R receptor [3]): 77 nM | MC4R selectivity vs MC1R (human MC4R receptor [4]): 3.75 | MC4R selectivity vs MC3R (human MC4R receptor [4]): 16

{CH2CO}-[Aib][Cit][dF]RFC-NH2 (thioether N-6) [CTX-1652]
cAMP EC50 (human MC3R [2]): > 10000 nM | cAMP EC50 (human MC4R receptor [3]): > 10000 nM

B1: CTX-1293 (peptide)
peptide: Ac-RCGR[dF]RWC-NH2
modifications: disulfide 2-8
SMILES: CC(=O)N[C@@H](CCCNC(=N)N)C(=O)N[C@H]1CSSC[C@@H](C(N)=O)NC(=O)[C@H](Cc2c[nH]c3ccccc23)NC(=O)[C@H](CCCNC(=N)N)NC(=O)[C@@H](Cc2ccccc2)NC(=O)[C@H](CCCNC(=N)N)NC(=O)CNC1=O
% max activation (human MC4R receptor [3]): 87% | cAMP EC50 (human MC4R receptor [3]): 0.25 nM

B2: CTX-1202 (peptide)
peptide: {CH2CO}-[dA]H[dF]RWC-NH2
modifications: thioether N-6
SMILES: C[C@H]1NC(=O)CSC[C@@H](C(N)=O)NC(=O)[C@H](Cc2c[nH]c3ccccc23)NC(=O)[C@H](CCCNC(=N)N)NC(=O)[C@@H](Cc2ccccc2)NC(=O)[C@H](Cc2c[nH]cn2)NC1=O
% max activation (human MC3R [2]): 101% | cAMP EC50 (human MC3R [2]): 130 nM | % max activation (human MC4R receptor [3]): 104% | cAMP EC50 (human MC4R receptor [3]): 0.65 nM | MC4R selectivity vs MC1R (human MC4R receptor [4]): 0.89

B3: CTX-1257 (peptide)
peptide: Ac-RC[dA]R[dF]R[dF]C-NH2
modifications: disulfide 2-8
SMILES: CC(=O)N[C@@H](CCCNC(=N)N)C(=O)N[C@H]1CSSC[C@@H](C(N)=O)NC(=O)[C@@H](Cc2ccccc2)NC(=O)[C@H](CCCNC(=N)N)NC(=O)[C@@H](Cc2ccccc2)NC(=O)[C@H](CCCNC(=N)N)NC(=O)[C@@H](C)NC1=O
cAMP EC50 (human MC3R [2]): 44 nM | MC4R selectivity vs MC1R (human MC4R receptor [4]): 0.02

B4: CTX-1618 (peptide)
peptide: Ac-R[Nle]C[hCit][dF]RWC-NH2
modifications: disulfide 3-8
SMILES: CCCC[C@H](NC(=O)[C@H](CCCNC(=N)N)NC(C)=O)C(=O)N[C@H]1CSSC[C@@H](C(N)=O)NC(=O)[C@H](Cc2c[nH]c3ccccc23)NC(=O)[C@H](CCCNC(=N)N)NC(=O)[C@@H](Cc2ccccc2)NC(=O)[C@H](CCCCNC(N)=O)NC1=O
% max activation (human MC3R [2]): 33% | cAMP EC50 (human MC3R [2]): 29 nM

B5: CTX-1637 (peptide)
peptide: Ac-CGH[dF]RFC-NH2
modifications: disulfide 1-7
SMILES: CC(=O)N[C@H]1CSSC[C@@H](C(N)=O)NC(=O)[C@H](Cc2ccccc2)NC(=O)[C@H](CCCNC(=N)N)NC(=O)[C@@H](Cc2ccccc2)NC(=O)[C@H](Cc2c[nH]cn2)NC(=O)CNC1=O
% max activation (human MC3R [2]): 98% | cAMP EC50 (human MC3R [2]): 68 nM

{CH2CO}-[dA][Cit][dF]RFC-NH2 (thioether N-6) [CTX-1658]
cAMP EC50 (human MC3R [2]): > 10000 nM | cAMP EC50 (human MC4R receptor [3]): > 10000 nM

B6: CTX-1607 (peptide)
peptide: Ac-R[Nle]C[Cit][dF]RWC-NH2
modifications: disulfide 3-8
SMILES: CCCC[C@H](NC(=O)[C@H](CCCNC(=N)N)NC(C)=O)C(=O)N[C@H]1CSSC[C@@H](C(N)=O)NC(=O)[C@H](Cc2c[nH]c3ccccc23)NC(=O)[C@H](CCCNC(=N)N)NC(=O)[C@@H](Cc2ccccc2)NC(=O)[C@H](CCCNC(N)=O)NC1=O
% max activation (human MC3R [2]): 47% | cAMP EC50 (human MC3R [2]): 14 nM

Ac-RC[Aib][Cit][dF]RWC-NH2 (disulfide 2-8) [CTX-1289]
% max activation (human MC3R [2]): 21% | cAMP EC50 (human MC3R [2]): 17 nM | % max activation (human MC4R receptor [3]): 93% | cAMP EC50 (human MC4R receptor [3]): 0.6 nM | MC4R selectivity vs MC1R (human MC4R receptor [4]): 130 | MC4R selectivity vs MC3R (human MC4R receptor [4]): 30

{CH2CO}-G[Cit][dF]RFC-NH2 (thioether N-6) [CTX-1655]
cAMP EC50 (human MC3R [2]): > 10000 nM | cAMP EC50 (human MC4R receptor [3]): > 10000 nM

B7: CTX-1625 (peptide)
peptide: Ac-R[Nle]CH[dF]RFC-NH2
modifications: disulfide 3-8
SMILES: CCCC[C@H](NC(=O)[C@H](CCCNC(=N)N)NC(C)=O)C(=O)N[C@H]1CSSC[C@@H](C(N)=O)NC(=O)[C@H](Cc2ccccc2)NC(=O)[C@H](CCCNC(=N)N)NC(=O)[C@@H](Cc2ccccc2)NC(=O)[C@H](Cc2c[nH]cn2)NC1=O
% max activation (human MC4R receptor [3]): 101% | cAMP EC50 (human MC4R receptor [3]): 38 nM

Reference: patent US20240391954A1, “MC4R AGONIST PEPTIDES” (The Regents of the University of Michigan, priority 2021, published 2024)
